Data set [1] has as its system M. tuberculosis H37Rv. The data set can be described thus: MIC determination, resazurin-based microplate assay. In kind it is cell-based, Mycobacterium tuberculosis. The settings on record: Mycobacterium tuberculosis, single drug.
A short description of data set [2]: In vivo pharmacokinetics in infected mice (plasma, LC-MS/MS). Also on record: species or system BALB/c mice. The settings on record: mouse; for AUC(0-t) / Cmax: po, steady state, infected mice.
Data set [3] concerns M. tuberculosis H37Rv. As to the kind of experiment: In vitro bactericidal-effect analysis (CFU enumeration of checkerboard wells). It is filed as cell-based, Mycobacterium tuberculosis. The settings on record: single drug at its MIC (FIC of 1); positive = reduction in CFU. Put shortly: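 Wells staying blue in REMA checkerboards with ΣFIC <0.7 (pairs) or <1.5 (triplets) plated on Middlebrook 7H10, 37°C for 21 to 28 days; CFU reduction computed versus untreated start-of-testing counts and versus each drug alone.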

For data set [4] the following is noted: in vivo, 25 mg/kg; cited from earlier work.
Setting [5] is: BALB/c, plasma, 25 mg/kg, Group 5 triplet EMB 100/BDQ 25/SQ109 25 mg/kg oral, read-out: AUC0-24 in Triplet.
[6] abbreviates: BALB/c, plasma, 25 mg/kg, Group 5 triplet EMB 100/BDQ 25/SQ109 25 mg/kg oral, read-out: Cmax in Triplet.
Where [7] appears, read: BALB/c, plasma, 50 mg/kg, Group 2 triplet SQ109 25/BDQ 25/PA824 50 mg/kg oral, read-out: AUC0-24 in Triplet.
The mark [8] stands for this setting: BALB/c, plasma, 50 mg/kg, Group 2 triplet SQ109 25/BDQ 25/PA824 50 mg/kg oral, read-out: Cmax in Triplet.
The mark [9] stands for this setting: BALB/c, plasma, 150 mg/kg, Group 2 quartet SQ109 25/BDQ 25/PA824 50/PZA 150 mg/kg oral, read-out: AUC0-24 in Quartet.
The mark [10] stands for this setting: BALB/c, plasma, 150 mg/kg, Group 2 quartet SQ109 25/BDQ 25/PA824 50/PZA 150 mg/kg oral, read-out: Cmax in Quartet.
Setting [11] is: BALB/c, plasma, 150 mg/kg, Group 5 quartet EMB 100/BDQ 25/SQ109 25/PZA 150 mg/kg oral, read-out: AUC0-24 in Quartet.
[12] abbreviates: BALB/c, plasma, 150 mg/kg, Group 5 quartet EMB 100/BDQ 25/SQ109 25/PZA 150 mg/kg oral, read-out: Cmax in Quartet.

Molecules are shown by their SMILES. In brackets after ≈: the same amount, converted by molar mass. Like-named read-outs stand apart in the source and are kept apart here.

These results are taken from paper PMC4538536, “In Silico-Based High-Throughput Screen for Discovery of Novel Combinations for Tuberculosis Treatment” (Antimicrobial Agents and Chemotherapy, 2015).

Consider `COc1nc2ccc(Br)cc2cc1[C@@H](c1ccccc1)[C@@](O)(CCN(C)C)c1cccc2ccccc12` [Bedaquiline], for which inhibition of growth in data set [1] (MIC) required 0.35 µM (≈ 0.194 µg/mL). Besides, the AUC(0-t) in data set [2] (setting [5]) amounted to 22200 ± 1600 ng·h/mL; in data set [2] (BALB/c, plasma, 50 mg/kg, Group 1 triplet CFZ 20/BDQ 25/PA824 50 mg/kg oral, read-out: AUC0-24 in Triplet) it was 21000 ± 1700 ng·h/mL; in data set [2] (setting [7]), 34900 ± 5800 ng·h/mL; in data set [2] (BALB/c, plasma, 100 mg/kg, Group 8 triplet PA824 50/BDQ 25/EMB 100 mg/kg oral, read-out: AUC0-24 in Triplet), 43300 ± 6000 ng·h/mL; in data set [2] (BALB/c, plasma, 150 mg/kg, Group 1 quartet CFZ 20/BDQ 25/PA824 50/PZA 150 mg/kg oral, read-out: AUC0-24 in Quartet) it was 30900 ± 5200 ng·h/mL; in data set [2] (setting [9]) it was 31400 ± 5400 ng·h/mL. Moreover, the AUC(0-t) in data set [2] (setting [11]) stood at 21500 ± 1600 ng·h/mL; in data set [2] (BALB/c, plasma, 150 mg/kg, Group 7 quartet PA824 50/BDQ 25/MXF 400/PZA 150 mg/kg oral, read-out: AUC0-24 in Quartet), 24600 ± 2900 ng·h/mL; in data set [2] (BALB/c, plasma, 150 mg/kg, Group 8 quartet PA824 50/BDQ 25/EMB 100/PZA 150 mg/kg oral, read-out: AUC0-24 in Quartet), 50700 ± 8900 ng·h/mL; in data set [2] (BALB/c, plasma, 400 mg/kg, Group 7 triplet PA824 50/BDQ 25/MXF 400 mg/kg oral, read-out: AUC0-24 in Triplet), 63200 ± 16700 ng·h/mL. For the same compound, the Cmax in data set [2] (setting [6]) stood at 2000 ± 600 ng/mL; in data set [2] (BALB/c, plasma, 50 mg/kg, Group 1 triplet CFZ 20/BDQ 25/PA824 50 mg/kg oral, read-out: Cmax in Triplet), 1600 ± 100 ng/mL; in data set [2] (setting [8]) it was 3600 ± 2800 ng/mL; in data set [2] (BALB/c, plasma, 100 mg/kg, Group 8 triplet PA824 50/BDQ 25/EMB 100 mg/kg oral, read-out: Cmax in Triplet) it was 3100 ± 200 ng/mL; in data set [2] (BALB/c, plasma, 150 mg/kg, Group 1 quartet CFZ 20/BDQ 25/PA824 50/PZA 150 mg/kg oral, read-out: Cmax in Quartet), 2600 ± 500 ng/mL; in data set [2] (setting [10]), 2300 ± 500 ng/mL. Further, the Cmax in data set [2] (setting [12]) is 1700 ± 700 ng/mL; in data set [2] (BALB/c, plasma, 150 mg/kg, Group 7 quartet PA824 50/BDQ 25/MXF 400/PZA 150 mg/kg oral, read-out: Cmax in Quartet) it was 4500 ± 1300 ng/mL; in data set [2] (BALB/c, plasma, 150 mg/kg, Group 8 quartet PA824 50/BDQ 25/EMB 100/PZA 150 mg/kg oral, read-out: Cmax in Quartet), 4200 ± 1500 ng/mL; in data set [2] (BALB/c, plasma, 400 mg/kg, Group 7 triplet PA824 50/BDQ 25/MXF 400 mg/kg oral, read-out: Cmax in Triplet), 3600 ± 100 ng/mL. For the same compound, in data set [3], the “ΔLog10 CFU/ml at the MIC” value amounted to 0.02 Log10 CFU/ml.

In data set [1], `CC(C)=CCC/C(C)=C/CNCCNC1C2CC3CC(C2)CC1C3` (centres unmarked) [SQ109] returned an MIC of 1.18 µM (≈ 0.39 µg/mL). Besides, in data set [2] (BALB/c, plasma, oral, SQ109 25 mg/kg, EMB 100 mg/kg, in 3- and 4-drug combinations, read-out: observed AUC in combinations), the AUC lay within 2000 to 8900 ng·h/mL. The AUC(0-t) in data set [2] (setting [5]) turned out to be 7800 ± 4900 ng·h/mL; in data set [2] (BALB/c, plasma, 25 mg/kg, Group 6 triplet BTZ043 37.5/THI 800/SQ109 25 mg/kg oral, read-out: AUC0-24 in Triplet), 3100 ± 300 ng·h/mL; in data set [2] (setting [7]) it was 8900 ± 3700 ng·h/mL; in data set [2] (BALB/c, plasma, 130 mg/kg, Group 9 triplet EMB 100/SQ109 25/LZD 130 mg/kg oral, read-out: AUC0-24 in Triplet), 4700 ± 1400 ng·h/mL; in data set [2] (setting [9]), 5100 ± 800 ng·h/mL; in data set [2] (BALB/c, plasma, 150 mg/kg, Group 3 quartet BTZ043 37.5/SQ109 25/MXF 200/PZA 150 mg/kg oral, read-out: AUC0-24 in Quartet) it was 1800 ± 400 ng·h/mL. In addition, the AUC(0-t) came out at 4900 ± 100 ng·h/mL in data set [2] (setting [11]); 4900 ± 2200 ng·h/mL in data set [2] (BALB/c, plasma, 150 mg/kg, Group 6 quartet BTZ043 37.5/THI 800/SQ109 25/PZA 150 mg/kg oral, read-out: AUC0-24 in Quartet); 7600 ± 3600 ng·h/mL in data set [2] (BALB/c, plasma, 150 mg/kg, Group 9 quartet EMB 100/SQ109 25/LZD 130/PZA 150 mg/kg oral, read-out: AUC0-24 in Quartet); 2100 ± 800 ng·h/mL in data set [2] (BALB/c, plasma, 200 mg/kg, Group 3 triplet BTZ043 37.5/SQ109 25/MXF 200 mg/kg oral, read-out: AUC0-24 in Triplet). In addition, the Cmax in data set [2] (setting [6]) turned out to be 5500 ± 5100 ng/mL; in data set [2] (BALB/c, plasma, 25 mg/kg, Group 6 triplet BTZ043 37.5/THI 800/SQ109 25 mg/kg oral, read-out: Cmax in Triplet) it was 900 ± 500 ng/mL; in data set [2] (setting [8]), 5200 ± 2700 ng/mL; in data set [2] (BALB/c, plasma, 130 mg/kg, Group 9 triplet EMB 100/SQ109 25/LZD 130 mg/kg oral, read-out: Cmax in Triplet), 900 ± 400 ng/mL; in data set [2] (setting [10]) it was 3500 ± 1400 ng/mL; in data set [2] (BALB/c, plasma, 150 mg/kg, Group 3 quartet BTZ043 37.5/SQ109 25/MXF 200/PZA 150 mg/kg oral, read-out: Cmax in Quartet) it was 500 ± 200 ng/mL. The Cmax in data set [2] (setting [12]) was found to be 2700 ± 500 ng/mL; in data set [2] (BALB/c, plasma, 150 mg/kg, Group 6 quartet BTZ043 37.5/THI 800/SQ109 25/PZA 150 mg/kg oral, read-out: Cmax in Quartet) it was 3100 ± 2800 ng/mL; in data set [2] (BALB/c, plasma, 150 mg/kg, Group 9 quartet EMB 100/SQ109 25/LZD 130/PZA 150 mg/kg oral, read-out: Cmax in Quartet), 3500 ± 3100 ng/mL; in data set [2] (BALB/c, plasma, 200 mg/kg, Group 3 triplet BTZ043 37.5/SQ109 25/MXF 200 mg/kg oral, read-out: Cmax in Triplet), 700 ± 500 ng/mL. Moreover, the “plasma exposure in combination compared with individual (reported) exposure” value in data set [2] (in vivo) is “higher”. For the same compound, the “ΔLog10 CFU/ml at the MIC” value in data set [3] turned out to be 1.40 Log10 CFU/ml. For the same compound, the “reported AUC” value in data set [4] is 250 ng·h/mL.
